Data on 27 molecules can be found in patent publication US20140065103A1 (VERTEX PHARMACEUTICALS INCORPORATED, priority 2010, published 2014).

Read-outs that look alike come from different tables or passages of the source. Some results are limits rather than exact numbers.

The test system of series [1] is HCV sub-genomic replicon of genotype 1a in replicon cell line W11.8. The experiment in a line: microbe, parasite or virus in culture. The series is classed as cell-based, Hepatitis C virus. The conditions noted are these: read-out: HCV-Replicon-ELISA-1a IC50. For orientation: Replicon systems follow genome replication, usually without infectious particles.
The subject of series [2] is Huh-7 ET, Molt-4, DU-145, Hep-G2 and SH-SY5Y cells. The experiment in a line: [3H]Thymidine incorporation assay (cytotoxicity, CC50). Particulars: [3H]thymidine incorporation; cell line not given. In general terms: Dividing cells build labelled thymidine or BrdU into new DNA.
Assay in series [3]: as above
The conditions noted are these: human.

What is called IC50 is the midpoint of a concentration-inhibition curve. As usually defined, the CC50 is the concentration at which the toxic effect on the cells reaches its halfway point. A high value points to better tolerance by the cells. On to `CC(Cn1cccn1)N(c1cc(C#CC(C)(C)C)sc1C(=O)O)C(=O)[C@H]1CC[C@H](C)CC1` (stereo partly drawn) [Compound 80, 5-(3,3-Dimethylbut-1-ynyl)-3-[(4-trans-methylcyclohexanecarbonyl)-(1-methyl-2-pyrazol-1-yl-ethyl)amino]thiophene-2-carboxylic acid], for which the IC50 in series [1] was less than 0.1 µM. In series [2], the CC50 fell in the range of 10 to 100 µM.
For `CC(C)(C)C#Cc1cc(N(Cc2ccccc2)C(=O)[C@H]2CC[C@H](C)CC2)c(C(=O)O)s1` [Compound 74, 3-[Benzyl-(4-trans-methylcyclohexanecarbonyl)amino]-5-(3,3-dimethylbut-1-ynyl)thiophene-2-carboxylic acid] the same measures were 0.1 to 1 µM and 10 to 100 µM.
For `CC(=O)N1CC[C@@H](N(c2cc(C#CC(C)(C)C)sc2C(=O)O)C(=O)[C@H]2CC[C@H](C)CC2)C1` (stereo in doubt) [Compound 60, 3-(N—((R)-1-Acetylpyrrolidin-3-yl)-4-trans-methylcyclohexane-carboxamido)-5-(3,3-dimethylbut-1-yn-1-yl)thiophene-2-carboxylic acid] the same measures were 0.1 to 1 µM and greater than 100 µM.
For `CN(C)C(=O)[C@H]1C[C@H](N(c2cc(C#CC(C)(C)C)sc2C(=O)O)C(=O)[C@H]2CC[C@H](C)CC2)C1` [Compound 63, 5-(3,3-Dimethylbut-1-yn-1-yl)-3-(N-(3-trans-(dimethylcarbamoyl)-cyclobutyl)-4-trans-methylcyclohexanecarboxamido)thiophene-2-carboxylic acid] the same measures were less than 0.1 µM and greater than 100 µM.
As for “5-(3,3-dimethylbut-1-yn-1-yl)-3-(trans-4-methyl-N-((S)-1-methylsulfonyl)pyrrolidin-3-yl)thiophene-2-carboxylic acid [Compound 68]”, the IC50 in series [1] is less than 0.1 µM. For the same molecule, the CC50 in series [2] is greater than 100 µM.
The like results for `CN(C)C[C@H]1C[C@H](N(c2cc(C#CC(C)(C)C)sc2C(=O)O)C(=O)[C@H]2CC[C@H](C)CC2)C1` [Compound 70, 5-(3,3-Dimethylbut-1-yn-1-yl)-3-(trans-4-methyl-N((trans-3-(dimethylamino)methyl)cyclobutyl)cyclohexanecarboxamido)thiophene-2 carboxylic acid] were, in that order, less than 0.1 µM and greater than 100 µM.
In the case of `CC(CN(c1cc(C#CC(C)(C)C)sc1C(=O)O)C(=O)[C@H]1CC[C@H](C)CC1)n1cccn1` (stereo partly drawn) [Compound 73, 5-(3,3-Dimethylbut-1-ynyl)-3-[(4-trans-methylcyclohexanecarbonyl)-(2-pyrazol-1-ylpropyl)amino]thiophene-2-carboxylic acid], the IC50 in series [1] was less than 0.1 µM. Also, in series [2], the half-maximal cytotoxic concentration (CC50) lay in the range of 10 to 100 µM.
Turning to `Cc1noc(C)c1CN(c1cc(C#CC(C)(C)C)sc1C(=O)O)C(=O)[C@H]1CC[C@H](C)CC1` [Compound 54, 5-(3,3-Dimethylbut-1-yn-1-yl)-3-(N-((3,5-dimethylisoxazol-4-yl)methyl)-4-trans-methylcyclohexanecarboxamido)thiophene-2-carboxylic acid], in series [1], the IC50 was less than 0.1 µM. This molecule also returned a CC50 in series [2] of 10 to 100 µM.
For `CC(C)c1noc(C(C)N(c2cc(C#CC(C)(C)C)sc2C(=O)O)C(=O)[C@H]2CC[C@H](C)CC2)n1` (stereo partly drawn) [Compound 79] the same measures were 0.1 to 1 µM and 10 to 100 µM.
For `Cn1cncc1CN(c1cc(C#CC(C)(C)C)sc1C(=O)O)C(=O)[C@H]1CC[C@H](C)CC1` [Compound 66, 5-(3,3-Dimethylbut-1-ynyl)-3-((trans)-4-methyl-N-((1-methyl-1H-imidazol-5-yl)methyl)cyclohexanecarboxamido)thiophene-2-carboxylic acid], the concentration for half-maximal inhibition (IC50) in series [1] (Hepatitis C virus, W11.8, 96 h) is less than 0.1 µM. Moreover, the cytotoxic concentration (CC50) at 72 h in series [3] is greater than 100 µM.
For `CC(C)(C)C#Cc1cc(N(C(=O)[C@H]2CC[C@H](C)CC2)[C@@H]2CCNC2)c(C(=O)O)s1` [Compound 58, 5-(3,3-Dimethylbut-1-yn-1-yl)-3-((trans)-4-methyl-N—((R)-pyrrolidin-3-yl)cyclohexanecarboxamido)thiophene-2-carboxylic acid] the same measures were less than 0.1 µM and greater than 100 µM.
Take `COCC(COC)N(c1cc(C#CC(C)(C)C)sc1C(=O)O)C(=O)[C@H]1CC[C@H](C)CC1` [Compound 39, 3-(-N-(1,3-Dimethoxypropan-2-yl)-4-trans-methylcyclohexanecarboxamido)-5-(3,3-dimethylbut-1-yn-1-yl)thiophene-2-carboxylic acid]: the IC50 in series [1] fell in the range of 0.1 to 1 µM. For the same molecule, the CC50 in series [2] lay within 10 to 100 µM.
On to `CC(C)(C)C#Cc1cc(N(CC(=O)O)C(=O)[C@H]2CC[C@H](C)CC2)c(C(=O)O)s1` [Compound 2, 3-[Carboxymethyl-(trans-4-methyl-cyclohexanecarbonyl)-amino]-5-(3,3-dimethyl-but-1-ynyl)-thiophene-2-carboxylic acid], for which, in series [1] (Hepatitis C virus, W11.8, 96 h), the IC50 fell in the range of 0.1 to 1 µM. For the same molecule, in series [3], the CC50 at 72 h was greater than 100 µM.
For `CCc1noc(C(C)N(c2cc(C#CC(C)(C)C)sc2C(=O)O)C(=O)[C@H]2CC[C@H](C)CC2)n1` (stereo partly drawn) [Compound 75], in series [1], the concentration for half-maximal inhibition (IC50) is less than 0.1 µM. Besides, in series [2], the CC50 is 10 to 100 µM.
For `CC(C)(C)C#Cc1cc(N(C(=O)c2ccc(Cl)cc2Cl)[C@H]2CC[C@H](O)CC2)c(C(=O)O)s1` [Compound 90, 3-[(2,4-Dichloro-benzoyl)-(trans-4-hydroxy-cyclohexyl)-amino]-5-(3,3-dimethyl-but-1-ynyl)-thiophene-2-carboxylic acid], the half-inhibitory concentration (IC50) in series [1] (Hepatitis C virus, W11.8, 96 h) lay in the range of 0.1 to 1 µM. In series [3], the CC50 at 72 h was 10 to 100 µM.
As to “3-[Cyclohex-3-enyl-(trans-4-methyl-cyclohexanecarbonyl)-amino]-5-(3,3-dimethyl-but-1-ynyl)-thiophene-2-carboxylic acid [Compound 13]”, the half-maximal inhibitory concentration (IC50) in series [1] was 1 to 10 µM. The same molecule displayed a 50% cytotoxic concentration (CC50) in series [2] of 10 to 100 µM.
For “5-(3,3-dimethylbut-1-yn-1-yl)-3-(trans-4-methyl-N—((R)-1-methylsulfonyl)pyrrolidin-3-yl)thiophene-2-carboxylic acid [Compound 69]” the same measures were less than 0.1 µM and greater than 100 µM.
The like results for `CC(=O)N1CC[C@H](N(c2cc(C#CC(C)(C)C)sc2C(=O)O)C(=O)[C@H]2CC[C@H](C)CC2)C1` (stereo in doubt) [Compound 59, 3-(N—((S)-1-Acetylpyrrolidin-3-yl)-4-trans-methylcyclohexanecarboxamido)-5-(3,3-dimethylbut-1-yn-1-yl)thiophene-2-carboxylic acid] were, in that order, less than 0.1 µM and greater than 100 µM.
The like results for `CC(C)C#Cc1cc(N(C(=O)[C@H]2CC[C@H](C)CC2)[C@H]2CC[C@@H](OCCO)CC2)c(C(=O)O)s1` [Compound 61, 5-(3-Methylbut-1-yn-1-yl)-3-((N-4-cis-(2-hydroxy)-ethoxycyclohexyl)-(4-trans-methylcyclohexane)carboxamido)thiophene-2-carboxylic acid] were, in that order, 0.1 to 1 µM and 10 to 100 µM.
Take `COC(C)(C)C#Cc1cc(N(C(=O)[C@H]2CC[C@H](C)CC2)C(C)C)c(C(=O)O)s1` [Compound 22, 3-[Isopropyl-(trans-4-methyl-cyclohexanecarbonyl)-amino]-5-(3-methoxy-3-methyl-but-1-ynyl)-thiophene-2-carboxylic acid]: the IC50 in series [1] (Hepatitis C virus, W11.8, 96 h) fell in the range of 0.1 to 1 µM. The 50% cytotoxic concentration (CC50) at 72 h in series [3] is 10 to 100 µM.
As to `CC(C)C#Cc1cc(N(C(=O)[C@H]2CC[C@H](C)CC2)C2CCOCC2)c(C(=O)O)s1` [Compound 43, 3-(N-(tetrahydro-2H-pyran-4-yl)-4-trans-methyl-cyclohexanecarboxamido)-5-(3-methylbut-1-yn-1-yl)thiophene-2-carboxylic acid], in series [1], the IC50 was less than 0.1 µM. This molecule also came in with a CC50 in series [2] of 10 to 100 µM.
For `CC(C)C#Cc1cc(N(C(=O)[C@H]2CC[C@H](C)CC2)[C@H]2CC[C@H](OCCO)CC2)c(C(=O)O)s1` [Compound 62, 5-(3-Methylbut-1-yn-1-yl)-3-((N-4-trans-(2-hydroxy)-ethoxycyclohexyl)-(4-trans-methylcyclohexane)carboxamido)thiophene-2-carboxylic acid] the same measures were less than 0.1 µM and 10 to 100 µM.
For `CCc1noc(CN(c2cc(C#CC(C)(C)C)sc2C(=O)O)C(=O)[C@H]2CC[C@H](C)CC2)n1` [Compound 78, 5-(3,3-dimethylbut-1-ynyl)-3-[(3-ethyl-1,2,4-oxadiazol-5-yl)methyl-(4-trans-methylcyclohexanecarbonyl)amino]thiophene-2-carboxylic acid] the same measures were less than 0.1 µM and 10 to 100 µM.
Consider `Cn1ccnc1CN(c1cc(C#CC(C)(C)C)sc1C(=O)O)C(=O)[C@H]1CC[C@H](C)CC1` [Compound 64, 5-(3,3-Dimethylbut-1-ynyl)-3-((trans)-4-methyl-N-((1-methyl-1H-imidazol-2-yl)methyl)cyclohexanecarboxamido)thiophene-2-carboxylic acid], for which, in series [1] (Hepatitis C virus, W11.8, 96 h), the IC50 is less than 0.1 µM. Further, the 50% cytotoxic concentration (CC50) at 72 h in series [3] was in the range of 10 to 100 µM.
`COCCN(c1cc(C#CC(C)(C)C)sc1C(=O)O)C(=O)[C@H]1CC[C@H](C)CC1` [Compound 29, 5-(3,3-Dimethylbut-1-ynyl)-3-(N-(2-methoxyethyl)-4-trans-methylcyclohexanecarboxamido)thiophene-2-carboxylic acid]: the IC50 in series [1] is less than 0.1 µM. Further, the CC50 in series [2] was in the range of 10 to 100 µM.
As to `CC(C)N(c1cc(C#CC2CCCCC2)sc1C(=O)O)C(=O)[C@H]1CC[C@H](C)CC1` [Compound 18, 5-Cyclohexylethynyl-3-[isopropyl-(trans-4-methyl-cyclohexanecarbonyl)-amino]-thiophene-2-carboxylic acid], the IC50 in series [1] (Hepatitis C virus, W11.8, 96 h) fell in the range of 1 to 10 µM. Besides, in series [3], the cytotoxic concentration (CC50) at 72 h fell in the range of 10 to 100 µM.
The like results for `CC(C)(C)C#Cc1cc(N(C(=O)[C@H]2CC[C@H](C)CC2)[C@H]2CCNC2)c(C(=O)O)s1` [Compound 57, 5-(3,3-Dimethylbut-1-yn-1-yl)-3-((trans)-4-methyl-N-((S)-pyrrolidin-3-yl)cyclohexanecarboxamido)thiophene-2-carboxylic acid] were, in that order, less than 0.1 µM and greater than 100 µM.
